These results are taken from publication PMC10536132, “Arginine Gemini-Based Surfactants for Antimicrobial and Antibiofilm Applications: Molecular Interactions, Skin-Related Anti-Enzymatic Activity and Cytotoxicity” (Molecules, 2023).

The test system of data set [1] is bovine hyaluronidase. Kind of data set: Hyaluronidase inhibitory activity. In kind it is biochemical. The note with it: positive control. On the procedure: The hyaluronidase inhibitory activity was performed according to the method used by Altinyay et al. with some modifications. Briefly, a work solution containing bovine hyaluronidase (7900 units/mL) in 0.1 M acetate buffer (pH 3.6) was prepared. Fifty microliters of the work solution were mixed 1:1 with the surfactants’ solution in 5% DMSO. For the negative control, 50 μL of 5% DMSO was used, while EGCG was used as positive control. After 20 min of incubation at 37 °C, 50 μL of calcium chloride (12.5 mM) was added to the mixture and again incubated for 20 min at 37 °C. At that point, 250 μL sodium hyaluronate (1.2 mg/mL) was added and incubated for 40 min at 37 °C. After incubation, the mixture was treated with 50 μL of 0.4 M NaOH and 100 μL of 0.2 M sodium borate and then incubated for 3 min in a boiling water bath. After cooling to room temperature, 1.4 mL of p-dimethylaminobenzaldehyde solution was added to the reaction mixture, being further incubated at 37 °C for 20 min. The resulting colored solution was measured at λ = 585 nm (PerkinElmer-Lambda 35, Brazil). The hyaluronidase inhibitory activity of each sample was calculated according to the following formula:(3) Hyaluronidase inhibitory activity %=A1−A2/A1×100 where A1 and A2 represent the absorbance in the absence and presence of the testing sample, respectively.

The test system of data set [2] is Collagenase from Clostridium histolyticum (ChC). Kind of data set: Collagenase inhibitory activity assay (FALGPA substrate). In kind it is biochemical. To be noted: approximately 25 μg of sample in the reaction mixture, 15 min preincubation. On the procedure:
The inhibition of collagenase followed the methodology proposed by Thring et al.. First, a solution containing the surfactants at 1000 μg/mL was prepared. An aliquot of 40 μL of each sample was used in the assay. Collagenase from Clostridium histolyticum (ChC) was dissolved in tricine buffer (50 mM, pH 8.0) immediately before use at an initial concentration of 0.35 U/mL. The synthetic substrate N-[3- (2-furyl) acryloyl]-Leu-Gly-Pro-Ala (FALGPA) (40 μL) was dissolved in the kit buffer (60 μL) according to the supplier information. The samples of C3(LA)2, C6(LA)2 and C9(LA)2 were incubated with the enzyme for 15 min before the substrate addition. The final reaction mixture contained tricine buffer, 0.8 mM FALGPA, 0.1 U of ChC and approximately 25 μg of each surfactant. Ultrapure water was used as a negative control, while the positive control was EGCG solution, prepared at the same concentration of the surfactants. The absorbance at λ = 345 nm was measured immediately after the substrate incorporation and continuously during 20 min in kinetic mode using an Elx800 Microplate Reader Biotek® (Winooski, VT, USA). The collagenase inhibitory activity of each sample was determined in triplicate, according to the following equation:(1) Collagenase inhibitory activity %=A1−A2/A1×100 where A1 and A2 represent the absorbance in the absence and presence of sample, respectively.

Data set [3] concerns the target porcine pancreatic elastase (Sus scrofa, UniProt P00772). Put plainly: Elastase inhibitory assay. In kind it is biochemical. To be noted: 40 µL of 1000 µg/mL stock; EGCG 250 μM. On the procedure:
The elastase inhibition was tested according to the method described by […] et al.. First, a stock solution of each surfactant at 1000 μg/mL was prepared in sterile ultrapure water. A stock solution of porcine pancreatic elastase at 3.33 mg/mL in sterile ultrapure water was also prepared. The substrate […] (Ala) 3-p-nitroanilide was dissolved in 0.2 mM Tris-HCl buffer solution (pH 8.0). The samples (40 μL) were then diluted and incubated together with the enzyme for 15 min prior to the substrate addition. Negative control was sterile ultrapure water, while EGCG (250 μM or 0.114 mg/mL) was used as the positive control. The absorbance at λ = 410 nm was measured immediately after the substrate addition and continuously during the next 2 h using an Elx800 Microplate Reader (Biotek®). […] The anti-elastase activity (in %), determined in triplicate, was calculated according to the following equation:(2) Elastase inhibitory activity %=A1-A2/A1×100 where A1 and A2 represent the absorbance in the absence and presence of the testing samples, respectively.

Data set [4] concerns Gram-positive and Gram-negative bacteria. Put plainly: Minimum inhibitory concentration (MIC), broth microdilution. In kind it is cell-based. To be noted: planktonic bacteria, 24 h at 37 °C, values only in Figure 2. The text has this:
The Gram-positive bacteria tested include some problematic microorganisms such us L. monocytogenes; these bacteria cause listeriosis, a serious disease that has grown considerably in industrialized countries due to the increased ratio of immunosuppressed persons and the extensive use of refrigerated food. We have also tested the effectivity of these surfactants against methicillin-resistant Staphylococcus aureus (MRSA), which is known as a major cause of hospital-acquired infections and, at this time, is a remarkable public health problem. […] For comparison, this figure also includes the MIC values of a LAM (lauroyl arginine methyl ester) surfactant that can be considered the single-stranded homologue of these geminis and the BAC (benzalkonium ammonium chloride), a quaternary ammonium surfactant widely used as antiseptic.
Antimicrobial tests were carried out against the following microorganisms: Bacillus subtilis ATCC 6633, Staphylococcus epidermidis ATCC 12228, Staphylococcus aureus ATCC 29213, Listeria monocytogenes ATCC 15313, Enterococcus faecalis ATCC 29212, Escherichia coli ATCC 25922, Acinetobacter baumannii ATCC 19606, Klebsiella aerogenes ATCC 13048, methicillin-resistant Staphylococcus aureus ATCC 43300 and Pseudomonas aeruginosa PAO1. […] The growth of the microorganisms was determined visually after incubation for 24 h at 37 °C. […]

Details of data set [5]: method as in doi:10.1021/la981295l. To be noted: cited from earlier work.
Details of data set [6]: method as in doi:10.1021/la981295l. The note with it: cited from earlier work. The source holds these as a separate data set.
In data set [7] the test system is methicillin-resistant Staphylococcus aureus (MRSA) ATCC 43300 biofilm. Kind of data set: Biofilm eradication, crystal violet. In kind it is cell-based. The note with it: at 32 μg/mL. The method, then:
(§1) The ability of these geminis to disperse and eradicate biofilms once formed on the propylene surfaces of the microtiter plates was evaluated using the same bacterial strains. […] The susceptibility of both biofilms against the tested surfactants was similar. At a low concentration of 32 μg/mL, C3(CA)2 and C3(LA)2 were able to eradicate around 60–70% of preformed biofilm; however, at this concentration, the […] hydrophobic compound, C3(OA)2, eradicated less than 30% of biofilm. At high concentrations, the eradication percentage is similar for all alkyl chains. […] In this case, at low concentrations, there is not a clear dependence between the antibiofilm properties and the spacer; however, at a high concentration, the best effectivity was obtained for the longer spacer chains.
(§2) Antibiofilm activity was assessed against biofilm-producing strains of methicillin-resistant Staphylococcus aureus (MRSA) ATCC 43300 and Pseudomonas aeruginosa PAO1. Biofilm inhibition and eradication capacities of the gemini surfactants were evaluated against adherent bacterial biofilms grown in 96-well microtiter plates. Bacteria were grown overnight in tryptic soy agar at 37 °C for 24 h. The bacteria were suspended in lysogeny broth with glucose (1%) at 1.5 × 10^8 CFU/mL.
(§3) Biofilm eradication procedure: For mature biofilm formation, 200 μL of the diluted bacterial suspension was added to each well in a 96-well microplate and incubated at 37 °C for 24 h. The wells were gently rinsed with phosphate-buffered saline (PBS) and 200 μL of the corresponding gemini surfactant solution was added to each well and incubated again at 37 °C for 24 h. Two-fold serial dilutions of the gemini surfactant were used (4–128 μg/mL). After the plates were air dried, the biofilms were stained with 50 μL of 0.1 of % crystal violet for 25 min. The plates were rinsed with water and then 150 μL of 96% ethanol containing 10% acetic acid was added to all 96-well plates to dissolve the remaining crystal violet-stained biofilm. The absorbance value was recorded at 570 nm. Each assay was conducted at least three times and the results were averaged.

In data set [8] the test system is Pseudomonas aeruginosa PAO1 biofilm. Kind of data set: Biofilm eradication, crystal violet. Format: cell-based. To be noted: P. aeruginosa PAO1, at 32 μg/mL. On the procedure:
as §1, §2, §3

Details of data set [9]: method as in doi:10.1021/la981295l. The note with it: cited from earlier work. The source holds these as a separate data set.
Data set [10] in a line: Water solubility (qualitative). In kind it is physicochemical. To be noted: qualitative statement. An excerpt:
In all cases, the pKap values are smaller than those described by Fitch, as well as those cited in many biochemistry textbooks. The presence of fatty chains in arginine surfactants induces the formation of aggregates in which the positive charges are close to each other. As a result, the repulsion between these charges induces the release of protons, thus increasing the acid character of the compound. The cmc is mainly governed by the hydrophobic content of the molecules. For the same spacer chain, the cmc drastically decreases as the alkyl chain increases. For the same alkyl chain of 12 carbon atoms, the cmc slightly diminishes as the number of the methylene groups in the spacer increases. Unconventional aggregation behavior and two cmcs were inferred from different techniques. The first cmcs, inferred primarily from tension data, are between 0.002 and 0.005 mM. Fluorescence and conductivity experiments indicated a second cmc at concentrations two orders of magnitude higher than that from surface tension (0.3–0.6 mM). The low cmc obtained by surface tension measurements was ascribed to non-globular aggregates with small aggregation numbers larger than two or three, given the nearly constant surface tension above these cmc. The surface tension values at the first cmc were in the same order for all gemini surfactants. […]

Marks after values point to notes of the source that are not given here.

porcine pancreatic elastase, sequence (P00772 27-266): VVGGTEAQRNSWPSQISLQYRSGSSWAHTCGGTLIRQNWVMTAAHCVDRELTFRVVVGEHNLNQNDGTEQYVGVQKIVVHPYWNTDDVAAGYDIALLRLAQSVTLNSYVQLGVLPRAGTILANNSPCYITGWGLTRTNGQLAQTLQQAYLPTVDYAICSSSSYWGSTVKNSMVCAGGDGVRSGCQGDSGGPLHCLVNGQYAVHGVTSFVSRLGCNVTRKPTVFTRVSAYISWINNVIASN

Compound `O=C(O[C@@H]1Cc2c(O)cc(O)cc2O[C@@H]1c1cc(O)c(O)c(O)c1)c1cc(O)c(O)c(O)c1` [EGCG, epigalocatequin-3-galate, reference compound] showed a hyaluronidase inhibitory activity in data set [1] of 13%. Further, the “anti-collagenase activity (inhibition)” value in data set [2] is reported as 54.2%. The “anti-elastase activity (inhibition)” value in [3] turned out to be 67.3%.
For the compound `CCCCCCCCCC(=O)NC(CCCNC(=N)N)C(=O)NCCCNC(=O)C(CCCNC(=N)N)NC(=O)CCCCCCCCC` (centres unmarked) [C3(CA)2], the “antimicrobial activity (MIC), in words” value in data set [4] is “most active against all tested microorganisms”. The “CMC (mM) Conductivity” value in data set [5] is recorded as 2 * mM. Besides, the “CMC (mM) Surface Tension” value in data set [6] is on record as 0.043 * mM. Further, the γcmc in [6] (surface tension at the cmc) is given as 32 * mN/m. Also, the preformed biofilm eradicated in [7] and in [8] was 60–70% each time. The “CMC (mM) Fluorescence” value in data set [9] is 3 * mM. In addition, the water solubility result in [10] was “very good water solubility”.
